Experiment [1] concerns the target T1, GLUT 1 (Homo sapiens, UniProt P11166).
T1 sequence (P11166 1-492): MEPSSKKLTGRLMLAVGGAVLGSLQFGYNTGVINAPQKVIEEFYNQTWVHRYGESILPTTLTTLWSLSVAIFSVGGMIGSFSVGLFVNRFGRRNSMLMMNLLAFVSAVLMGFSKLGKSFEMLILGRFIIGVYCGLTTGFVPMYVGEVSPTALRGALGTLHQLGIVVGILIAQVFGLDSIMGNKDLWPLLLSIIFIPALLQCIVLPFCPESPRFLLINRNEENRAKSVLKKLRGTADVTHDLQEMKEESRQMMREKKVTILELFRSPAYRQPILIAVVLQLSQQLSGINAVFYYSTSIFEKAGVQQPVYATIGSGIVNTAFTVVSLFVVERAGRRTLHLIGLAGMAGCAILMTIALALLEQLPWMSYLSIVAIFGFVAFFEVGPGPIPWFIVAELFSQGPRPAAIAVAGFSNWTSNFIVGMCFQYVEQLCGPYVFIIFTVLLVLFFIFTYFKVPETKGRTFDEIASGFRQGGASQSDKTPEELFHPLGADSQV
The settings on record: cited from earlier work.

Experiment [2] concerns 3T3-L1 adipocytes. The experiment is described as follows: 6-NBDG uptake screening in 3T3-L1 adipocytes, 96-well, fluorescent microplate reader. The experiment is classed as cell-based, murine. The note with it: 100 nM insulin or 250 μM zinc sulfate; 6-NBDG vs 2-NBDG. On the procedure: 3T3-L1 murine fibroblasts were maintained in proliferation media, consisting of DMEM supplemented with 10% FBS, 50 units/mL penicillin and 50 μg/mL streptomycin. 3T3-L1 fibroblasts were induced to differentiate into adipocytes as follows: 48 h postconfluent cells (designated day 0) were cultured in DMEM supplemented 10% FBS, 0.5 mM 3-isobutyl-1-methyl-xanthine, 2 μg/ml dexamethasone, 1 μg/ml insulin, 50 units/mL penicillin and 50 μg/mL streptomycin for 2 days. Every 2 days thereafter, the cells were incubated with fresh DMEM supplemented with 10% FBS and 1 μg/ml insulin. 3T3-L1 adipocytes were used for experiments 8 days after the induction of differentiation.
Three cell lines were chosen to test if NBDG can be used to detect insulin-stimulated glucose uptake in a 96 well plate culture format, which is more suitable for cell-based screening to identify novel insulin mimetic compounds. The cell lines chosen were Huh7 hepatocytes, C2C12 myoblasts and 3T3-L1 pre-adipocytes, which represent the major body tissue types that are sensitive to the action of insulin (liver, muscle and fat). 10^4 cells/well were seeded in a black, 96 well tissue culture plate (BD Falcon, NJ, USA). C2C12 myoblasts and 3T3-L1 adipocytes were induced to undergo differentiation into myotubes and adipocytes, respectively, to compare the NDBG signal in proliferating and differentiated cells. NBDG uptake was measured following treatment with 10 nM or 100 nM insulin, and 1 μM or 10 μM rosiglitazone (an insulin-sensitizing agent), using a fluorescent microplate reader (SpectraMAX GeminiXS and SoftMax Pro V5 software, Molecular Devices, CA, USA). Cells were cultured in serum-free low glucose culture media for 3 h before the addition of insulin.
To test the NBDG-based screening system, a combinatorial chemical library of 576 triazine-based small molecules was screened at a concentration of 5 μM. The combinatorial library was provided by Professor Young-Tae Chang, Department of Chemistry, National University of Singapore.
To test if this screening protocol could detect new insulin mimetic compounds, a combinatorial chemical library of 576 triazine-based small molecules was screened.

The text below walks through data of patent US9254290B2, “Method for screening diabetes treating agent” (GWANGJU INSTITUTE OF SCIENCE AND TECHNOLOGY, priority 2010, dated 2016).

Molecules are shown by their SMILES.

In the case of `O=[N+]([O-])c1ccc(NCC2OC(O)C(O)C(O)[C@@H]2O)c2nonc12` (some centres unmarked) [6-NBDG, 6-(N-(7-nitrobenz-2-oxa-1,3-diazol-4-yl)amino)-6-deoxyglucose, reference compound], the “affinity for GLUT 1 relative to glucose” value in experiment [1] is reported as 300 times. The “fluorescent signal of probe after insulin-stimulated uptake” value in experiment [2] is recorded as “produced a greater fluorescent signal than 2-NBDG”.
